Assay results reported in ChEMBL document CHEMBL5113531, “Discovery of Potent Cholinesterase Inhibition-Based Multi-Target-Directed Lead Compounds for Synaptoprotection in Alzheimer's Disease” (J Med Chem, 2022).
Activity calls are given as the source filed them. No cut-off for these calls is given here.

Assays:
Acetylcholinesterase = Acetylcholinesterase (Homo sapiens, UniProt P22303); assay: Inhibition of human recombinant AChe using acetylthiocholine iodide as substrate incubated for 10 mins by DTNB reagent based Ellman's method
Cholinesterase = Cholinesterase (Homo sapiens, UniProt P06276); assay: Inhibition of human recombinant BuChe using butyrylthiocholine iodide as substrate incubated for 10 mins by DTNB reagent based Ellman's method
[1] = target: Sigma non-opioid intracellular receptor 1 (Cavia porcellus, UniProt Q60492); assay type: cell membranes, Brain, Membrane;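 note: radioligand displacement of [3H]-(+)-pentazocine binding to sigma1 receptor in guinea pig brain membranes, read by scintillation counting after a 120 min incubation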
Description: Displacement of [3H]-(+)-pentazocine from sigma1 receptor in guinea pig brain membrane measured after 120 mins by scintillation counting method

[2] = target: T1, Sigma intracellular receptor 2 (Rattus norvegicus, UniProt Q5U3Y7); assay: Displacement of [3H]DTG from sigma 2 receptor in rat liver membranes measured after 120 mins by scintillation counting method; assay type: cell membranes, Membrane
T1 sequence (Q5U3Y7 whole entry): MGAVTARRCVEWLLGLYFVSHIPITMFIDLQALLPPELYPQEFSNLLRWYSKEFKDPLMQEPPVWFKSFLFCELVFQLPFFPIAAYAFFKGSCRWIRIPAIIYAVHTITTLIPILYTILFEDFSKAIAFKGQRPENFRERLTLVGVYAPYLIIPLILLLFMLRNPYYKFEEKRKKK

[3] = target: Glutamate receptor ionotropic, NMDA 2B (Homo sapiens, UniProt Q13224); assay: Displacement of [3H]ifenprodil from recombinant human GluN2B NMDA receptor (unknown origin) expressed in dexamethasone-induced mouse L-M(TK-) cell after 120 mins by microbeta scintillation counting method; assay type: cell-based
P2X purinoceptor 7 = target: T2, P2X purinoceptor 7 (Homo sapiens, UniProt Q99572); assay: Antagonist activity at human P2X7 receptor expressed in HEK293 cells assessed as reduction in YO-PRO-1 iodide dye uptake preincubated for 30 mins followed by YO-PRO-1 iodide addition and measured after 120 mins by fluorescence plate reader analysis; assay type: cell-based
T2 sequence (Q99572 whole entry): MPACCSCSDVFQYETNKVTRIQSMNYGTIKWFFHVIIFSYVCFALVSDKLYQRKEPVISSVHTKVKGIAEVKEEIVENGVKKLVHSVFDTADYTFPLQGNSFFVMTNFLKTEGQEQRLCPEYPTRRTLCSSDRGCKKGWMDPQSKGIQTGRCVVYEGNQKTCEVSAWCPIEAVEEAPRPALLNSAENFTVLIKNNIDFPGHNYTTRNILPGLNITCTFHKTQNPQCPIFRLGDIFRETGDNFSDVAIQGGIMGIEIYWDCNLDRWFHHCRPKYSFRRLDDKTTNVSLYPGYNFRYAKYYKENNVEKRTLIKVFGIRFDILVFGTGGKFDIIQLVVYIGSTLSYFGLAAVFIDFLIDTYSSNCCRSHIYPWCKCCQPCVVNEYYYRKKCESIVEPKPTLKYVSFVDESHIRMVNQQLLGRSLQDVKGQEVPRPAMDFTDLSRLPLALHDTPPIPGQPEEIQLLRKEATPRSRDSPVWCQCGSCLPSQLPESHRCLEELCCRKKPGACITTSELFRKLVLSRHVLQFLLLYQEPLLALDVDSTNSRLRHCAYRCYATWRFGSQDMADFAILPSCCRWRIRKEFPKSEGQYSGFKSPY

Danio rerio [4] = species on record: Danio rerio; assay: Anti-neuroinflammatory activity in Abeta42 induced zebrafish AD model assessed as reduction in number of activated microglia relative to control; assay type: functional; parameters: scale not given: the % may be the effect or the level left
[5] = Selectivity index, ratio of Ki for displacement of [3H]-(+)-pentazocine from sigma1 receptor in guinea pig brain membrane to Ki for displacement of [3H]DTG from sigma 2 receptor in rat liver membranes; assay type: cell membranes
SH-SY5Y [6] = assay: Neuroprotective activity in H2O2 induced stress human SH-SY5Y cell model measured after 48 hrs by MTT assay; assay type: functional, cell-based
SH-SY5Y [7] = assay: Neuroprotective activity in Abeta42 induced stress human SH-SY5Y cell model measured after 72 hrs by CTG luminescence assay; assay type: functional, cell-based
Danio rerio [8] = species on record: Danio rerio; assay: Neuroprotective activity against Abeta42 induced zebrafish AD model assessed as reversal of reduction in synaptic integrity at 10 uM measured after 5 days; assay type: functional, organism-based; conditions: time 5.0 day
Cytochrome P450 3A4 = Cytochrome P450 3A4 (Homo sapiens, UniProt P08684); assay: Inhibition of CYP3A4 (unknown origin) preincubated for 10 mins followed by NADP addition measured after 50 mins; assay type: ADME
Cytochrome P450 2C9 = Cytochrome P450 2C9 (Homo sapiens, UniProt P11712); assay: Inhibition of CYP2C9 (unknown origin) preincubated for 10 mins followed by NADP addition measured after 50 mins; assay type: ADME
Cytochrome P450 2D6 = Cytochrome P450 2D6 (Homo sapiens, UniProt P10635); assay: Inhibition of CYP2D6 (unknown origin) preincubated for 10 mins followed by NADP addition measured after 50 mins; assay type: ADME
[9] = Selectivity index, ratio of Ki for displacement of [3H]DTG from sigma 2 receptor in rat liver membranes to Ki for displacement of [3H]-(+)-pentazocine from sigma1 receptor in guinea pig brain membrane; assay type: cell membranes
SH-SY5Y [10] = assay: Glio-protective activity in H2O2 induced human SH-SY5Y cells measured after 48 hrs by MTT assay; assay type: functional, cell-based
SH-SY5Y [11] = assay: Glio-protective activity in Abeta42 induced stress human SH-SY5Y cells measured after 72 hrs by CTG luminescence assay; assay type: functional, cell-based
[12] = Cytotoxicity against HEK293 cells assessed as reduction in cell viability at 10 to 80 uM measured after 24 hrs by CTG- luminescence assay; assay type: toxicity, cell-based; conditions: human
[13] = Permeability of the compound across blood brain barrier at pH 7.4 incubated for 16 hrs by PAMPA assay; assay type: ADME; conditions: read-out: permeability
[14] = Permeability of the compound at pH 6.8 by HDM-PAMPA assay; assay type: ADME; conditions: read-out: permeability
[15] = Hepatotoxicity in […] cells assessed as reduction in cell viability at 10 to 80 uM measured after 24 hrs by CTG- luminescence assay; assay type: toxicity, cell-based; conditions: human
PC-12 [16] = assay: Neuroprotective activity in […] PC-12 cells assessed as induction of NGF-mediated neurite outgrowth measured after 4 days by measuring fold change; assay type: functional, Rattus norvegicus; conditions: time 4 day
Danio rerio [17] = species on record: Danio rerio; assay: Neuroprotective activity against zebrafish AD model assessed as reversal of reduction in synaptic integrity at 10 uM measured after 5 days in presence of Abeta42 relative to control; assay type: functional; parameters: scale not given: the % may be the effect or the level left; conditions: time 5 day
Danio rerio [18] = species on record: Danio rerio; assay: Neuroprotective activity against zebrafish AD model assessed as reversal of reduction in synaptic integrity at 10 uM measured after 5 days relative to control; assay type: functional; parameters: scale not given: the % may be the effect or the level left; conditions: time 5 day
PC-12 [19] = assay: Neuroprotective activity in […] PC-12 cells assessed as induction of NGF-mediated neurite sprouting measured after 4 days by measuring fold change; assay type: functional, Rattus norvegicus; conditions: time 4 day

Chain of Cholinesterase (P06276 whole entry): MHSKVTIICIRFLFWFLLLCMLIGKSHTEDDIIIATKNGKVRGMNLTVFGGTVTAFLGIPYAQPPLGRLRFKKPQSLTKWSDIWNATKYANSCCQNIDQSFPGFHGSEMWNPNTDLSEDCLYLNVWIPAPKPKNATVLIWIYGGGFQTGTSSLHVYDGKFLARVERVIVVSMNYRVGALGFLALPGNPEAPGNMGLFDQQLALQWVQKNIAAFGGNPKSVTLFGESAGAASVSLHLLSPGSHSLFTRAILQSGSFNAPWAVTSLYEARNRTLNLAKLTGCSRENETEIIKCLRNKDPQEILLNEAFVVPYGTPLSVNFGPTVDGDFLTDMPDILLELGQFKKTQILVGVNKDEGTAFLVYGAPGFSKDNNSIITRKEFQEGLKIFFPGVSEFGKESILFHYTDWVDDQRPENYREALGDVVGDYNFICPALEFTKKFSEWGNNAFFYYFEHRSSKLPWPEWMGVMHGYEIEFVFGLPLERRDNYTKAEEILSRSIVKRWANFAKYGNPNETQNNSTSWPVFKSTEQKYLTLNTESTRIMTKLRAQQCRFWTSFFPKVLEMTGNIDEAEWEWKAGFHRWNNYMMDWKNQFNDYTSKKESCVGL
Chain of Acetylcholinesterase (P22303 whole entry): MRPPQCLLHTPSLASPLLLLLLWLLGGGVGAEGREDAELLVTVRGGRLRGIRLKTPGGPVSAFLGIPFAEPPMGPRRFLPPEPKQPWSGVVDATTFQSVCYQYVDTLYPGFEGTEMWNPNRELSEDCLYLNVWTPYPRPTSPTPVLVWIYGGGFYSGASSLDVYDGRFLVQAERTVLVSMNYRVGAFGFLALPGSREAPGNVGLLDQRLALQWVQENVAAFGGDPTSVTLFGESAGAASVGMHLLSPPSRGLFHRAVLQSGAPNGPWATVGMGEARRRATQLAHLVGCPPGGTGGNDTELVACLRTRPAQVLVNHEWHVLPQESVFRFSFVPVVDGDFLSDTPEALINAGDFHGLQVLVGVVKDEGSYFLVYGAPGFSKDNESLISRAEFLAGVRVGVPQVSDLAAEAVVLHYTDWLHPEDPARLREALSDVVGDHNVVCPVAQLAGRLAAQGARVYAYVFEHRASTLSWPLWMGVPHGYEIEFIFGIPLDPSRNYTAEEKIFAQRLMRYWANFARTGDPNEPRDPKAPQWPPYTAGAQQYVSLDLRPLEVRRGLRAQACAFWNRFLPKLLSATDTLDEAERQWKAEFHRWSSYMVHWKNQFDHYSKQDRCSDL
Chain of Glutamate receptor ionotropic, NMDA 2B (Q13224 whole entry): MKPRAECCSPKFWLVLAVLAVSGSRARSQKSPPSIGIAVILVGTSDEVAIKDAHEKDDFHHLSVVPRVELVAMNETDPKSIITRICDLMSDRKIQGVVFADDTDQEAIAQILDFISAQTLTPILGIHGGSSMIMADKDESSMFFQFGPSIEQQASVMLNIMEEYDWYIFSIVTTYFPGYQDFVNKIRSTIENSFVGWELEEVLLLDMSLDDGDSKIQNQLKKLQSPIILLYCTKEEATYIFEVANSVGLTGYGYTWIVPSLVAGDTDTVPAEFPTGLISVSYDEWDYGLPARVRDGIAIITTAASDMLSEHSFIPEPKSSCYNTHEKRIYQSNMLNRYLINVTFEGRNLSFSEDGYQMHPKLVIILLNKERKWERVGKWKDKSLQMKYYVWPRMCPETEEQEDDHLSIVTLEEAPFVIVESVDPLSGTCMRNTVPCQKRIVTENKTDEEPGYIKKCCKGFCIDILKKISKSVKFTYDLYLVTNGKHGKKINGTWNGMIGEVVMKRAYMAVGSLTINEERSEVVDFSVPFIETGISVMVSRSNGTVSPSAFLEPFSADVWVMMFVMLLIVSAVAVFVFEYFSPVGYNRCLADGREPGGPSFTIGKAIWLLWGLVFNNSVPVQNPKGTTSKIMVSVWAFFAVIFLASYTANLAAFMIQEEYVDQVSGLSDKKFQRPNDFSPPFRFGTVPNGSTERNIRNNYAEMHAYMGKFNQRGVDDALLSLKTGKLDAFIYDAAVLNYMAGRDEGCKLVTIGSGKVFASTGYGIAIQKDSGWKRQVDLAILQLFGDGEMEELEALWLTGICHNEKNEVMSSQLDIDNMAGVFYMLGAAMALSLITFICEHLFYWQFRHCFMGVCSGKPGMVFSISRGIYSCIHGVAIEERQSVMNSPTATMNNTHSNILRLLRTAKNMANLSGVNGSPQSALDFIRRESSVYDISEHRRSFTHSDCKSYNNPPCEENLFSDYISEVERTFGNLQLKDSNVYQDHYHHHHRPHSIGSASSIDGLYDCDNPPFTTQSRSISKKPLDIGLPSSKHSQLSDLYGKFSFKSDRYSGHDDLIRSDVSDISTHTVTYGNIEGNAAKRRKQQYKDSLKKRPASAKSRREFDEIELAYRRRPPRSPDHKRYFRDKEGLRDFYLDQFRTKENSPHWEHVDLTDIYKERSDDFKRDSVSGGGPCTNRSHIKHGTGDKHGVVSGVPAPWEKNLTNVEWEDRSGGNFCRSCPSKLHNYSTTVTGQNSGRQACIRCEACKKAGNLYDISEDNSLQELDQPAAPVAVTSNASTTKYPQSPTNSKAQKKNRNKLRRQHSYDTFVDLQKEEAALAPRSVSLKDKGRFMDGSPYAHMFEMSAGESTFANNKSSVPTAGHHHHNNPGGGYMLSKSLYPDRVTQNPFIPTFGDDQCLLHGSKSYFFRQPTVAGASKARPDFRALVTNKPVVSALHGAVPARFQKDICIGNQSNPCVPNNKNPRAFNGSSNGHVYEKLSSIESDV
Chain of Sigma non-opioid intracellular receptor 1 (Q60492 whole entry): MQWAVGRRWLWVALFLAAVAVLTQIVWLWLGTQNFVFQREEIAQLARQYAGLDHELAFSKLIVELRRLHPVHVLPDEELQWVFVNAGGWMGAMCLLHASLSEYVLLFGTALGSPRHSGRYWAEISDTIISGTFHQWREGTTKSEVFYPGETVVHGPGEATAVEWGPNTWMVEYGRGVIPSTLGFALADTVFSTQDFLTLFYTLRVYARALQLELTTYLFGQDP
Chain of Cytochrome P450 3A4 (P08684 whole entry): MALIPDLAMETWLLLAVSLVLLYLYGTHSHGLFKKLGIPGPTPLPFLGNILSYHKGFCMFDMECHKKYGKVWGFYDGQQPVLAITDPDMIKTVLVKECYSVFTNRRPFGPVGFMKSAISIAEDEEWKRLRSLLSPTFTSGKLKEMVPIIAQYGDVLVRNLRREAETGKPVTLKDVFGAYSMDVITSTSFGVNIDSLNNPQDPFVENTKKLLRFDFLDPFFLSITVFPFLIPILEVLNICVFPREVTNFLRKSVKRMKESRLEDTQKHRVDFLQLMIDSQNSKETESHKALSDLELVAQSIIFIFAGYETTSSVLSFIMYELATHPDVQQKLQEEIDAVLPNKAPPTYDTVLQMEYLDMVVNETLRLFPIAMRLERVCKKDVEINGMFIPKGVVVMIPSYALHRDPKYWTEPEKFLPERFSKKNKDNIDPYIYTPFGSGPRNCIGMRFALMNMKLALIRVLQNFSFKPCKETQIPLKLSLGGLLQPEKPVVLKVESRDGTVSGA
Chain of Cytochrome P450 2D6 (P10635 whole entry): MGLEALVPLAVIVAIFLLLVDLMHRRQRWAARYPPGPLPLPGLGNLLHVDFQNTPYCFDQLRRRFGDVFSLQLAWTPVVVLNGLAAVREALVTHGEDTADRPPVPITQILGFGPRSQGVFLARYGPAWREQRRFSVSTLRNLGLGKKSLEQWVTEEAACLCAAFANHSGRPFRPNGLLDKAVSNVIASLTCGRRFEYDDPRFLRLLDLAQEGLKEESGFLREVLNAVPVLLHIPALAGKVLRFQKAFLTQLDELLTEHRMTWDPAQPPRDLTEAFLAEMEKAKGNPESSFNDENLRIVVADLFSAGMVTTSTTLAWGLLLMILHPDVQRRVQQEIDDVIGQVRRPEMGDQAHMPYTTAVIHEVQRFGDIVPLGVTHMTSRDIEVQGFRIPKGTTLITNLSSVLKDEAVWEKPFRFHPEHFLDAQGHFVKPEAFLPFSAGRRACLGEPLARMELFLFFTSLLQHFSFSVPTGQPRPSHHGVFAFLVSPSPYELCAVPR
Chain of Cytochrome P450 2C9 (P11712 whole entry): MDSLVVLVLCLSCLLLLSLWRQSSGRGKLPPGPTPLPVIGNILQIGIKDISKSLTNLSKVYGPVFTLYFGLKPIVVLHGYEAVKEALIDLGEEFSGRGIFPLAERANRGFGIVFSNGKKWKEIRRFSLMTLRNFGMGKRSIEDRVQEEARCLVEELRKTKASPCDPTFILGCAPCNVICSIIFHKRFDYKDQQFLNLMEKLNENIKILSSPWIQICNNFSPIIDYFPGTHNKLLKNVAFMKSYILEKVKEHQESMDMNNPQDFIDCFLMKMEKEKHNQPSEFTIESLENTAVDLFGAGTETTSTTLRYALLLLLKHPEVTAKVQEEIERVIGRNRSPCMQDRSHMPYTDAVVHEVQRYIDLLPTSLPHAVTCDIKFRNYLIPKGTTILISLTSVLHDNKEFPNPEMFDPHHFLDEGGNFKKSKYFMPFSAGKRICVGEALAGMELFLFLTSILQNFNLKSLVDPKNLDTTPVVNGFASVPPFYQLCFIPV

Row | Compound | IC50 (Acetylcholinesterase) [nM] | IC50 (Cholinesterase) [nM] | Ki [1] [nM] | Ki [2] [nM] | Ki [3] [nM] | Ratio Ki [9] | other results
1 | Cc1cccc2sc(NC(=O)CCN3CCN(c4ccccn4)CC3)nc12 | 17200 | > 40000 | 1000 | > 1000 | > 1000 |  | IC50 (P2X purinoceptor 7): 1400 nM
2 | Cc1cccc2sc(NC(=O)CCN3CCN(Cc4cccc5ccccc45)CC3)nc12 | 19300 | 32900 | 1000 | > 1000 | > 1000 |  | 
3 | COc1cc2c(cc1OC)C(=O)C(CC1CCN(Cc3ccccc3)CC1)C2 (stereo not given) [DONEPEZIL] |  |  |  |  |  |  | Activity (Danio rerio [4]): 4.3%
4 | Cc1cccc2sc(NC(=O)CCN3CCN(c4ccncc4)CC3)nc12 | 18200 | > 40000 | 9600 | 1700 | 184 |  | Ratio Ki [5]: 5.65; IC50 (P2X purinoceptor 7): 1130 nM; Activity (SH-SY5Y [6]): Active; Activity (SH-SY5Y [7]): Active; Activity (Danio rerio [8]): Active; IC50 (Cytochrome P450 3A4): 1140 nM; IC50 (Cytochrome P450 2C9): 2460 nM; IC50 (Cytochrome P450 2D6): 13600 nM; Activity (Danio rerio [4]): 25.9%
5 | Cc1cccc2sc(NC(=O)CCN3CCN(CCN(C)C)CC3)nc12 | 480 | > 40000 | 1000 | > 1000 | > 1000 |  | IC50 (P2X purinoceptor 7): 2150 nM
6 | Cc1cccc2sc(NC(=O)CCN3CCN(Cc4ccccc4F)CC3)nc12 | 5220 | 2900 | 1700 | > 1000 | > 1000 |  | 
7 | Cc1ccccc1N1CCN(CCC(=O)Nc2nc3c(C)cccc3s2)CC1 | > 40000 | 8630 | 1000 | > 1000 | > 1000 |  | 
8 | CCCCN1CCN(CCC(=O)Nc2nc3c(C)cccc3s2)CC1 | > 40000 | 30100 | 204 | 1200 | 229 | 5.88 | 
9 | Cc1cccc2sc(NC(=O)CCN3CCN(Cc4cc(F)ccc4F)CC3)nc12 | 12600 | 7660 | 1000 | > 1000 | > 1000 |  | 
10 | Cc1cccc2sc(NC(=O)CCN3CCN(Cc4ccc(C(C)(C)C)cc4)CC3)nc12 | 40000 | 9320 | 238 | 238 | > 1000 |  | 
11 | CCN1CCN(CCC(=O)Nc2nc3c(C)cccc3s2)CC1 | 20600 | > 40000 | 543 | 1200 | > 1000 | 2.21 | 
12 | CCCCCCN1CCN(CCC(=O)Nc2nc3c(C)cccc3s2)CC1 | > 40000 | 29300 | 238 | 158 | 115 |  | Ratio Ki [5]: 1.5; Activity (SH-SY5Y [10]): Active; Activity (SH-SY5Y [11]): Active
13 | Cc1cccc2sc(NC(=O)CCN3CCN(C4CCN(C)CC4)CC3)nc12 | 10500 | > 40000 | 6000 | 3600 | > 1000 |  | Ratio Ki [5]: 1.66
14 | Cc1cccc2sc(NC(=O)CCN3CCN(C(C)(C)C)CC3)nc12 | 810 | > 40000 | 147 | 200 | 476 | 1.36 | 
15 | CCOCCN1CCN(CCC(=O)Nc2nc3c(C)cccc3s2)CC1 | 20100 | 39000 | 575 | 1600 | > 1000 | 2.78 | 
16 | Cc1cccc2sc(NC(=O)CCN3CCN(CCCN(C)C)CC3)nc12 | 410 | > 40000 | 570 | > 1000 | 1800 | > 1.75 | IC50 (P2X purinoceptor 7): 18100 nM; IC50 at 24 h [12]: 20500 nM; Activity (SH-SY5Y [6]): Active; Activity (SH-SY5Y [7]): Active; Activity (Danio rerio [8]): Active; Papp at 16 h [13]: 4 ×10⁻⁶ cm/s; Papp [14]: 4.5 ×10⁻⁶ cm/s; Activity (Danio rerio [4]): 33.1%
17 | CC(=O)c1ccc(N2CCN(CCC(=O)Nc3nc4c(C)cccc4s3)CC2)cc1 | 3820 | 3040 | 1000 | > 1000 | 187 |  | 
18 | Cc1cccc2sc(NC(=O)CCN3CCN(C(C)C)CC3)nc12 | 2750 | 14400 | 1300 | 1800 | > 1000 | 1.38 | 
19 | Cc1cccc2sc(NC(=O)CCN3CCN(C4CCCCC4)CC3)nc12 | 10900 | 3190 | 24 | 233 | 213 | 9.71 | IC50 at 24 h [15]: 47100 nM; Activity (SH-SY5Y [10]): Active; Activity (SH-SY5Y [11]): Active; Activity (Danio rerio [8]): Active
20 | Cc1cccc2sc(NC(=O)CCN3CCN(CC4CCCO4)CC3)nc12 (racemic) | 7910 | 12800 | 109 | 5000 | 457 | 45.9 | IC50 at 24 h [15]: 46300 nM; Activity (SH-SY5Y [6]): Active; Activity (SH-SY5Y [7]): Active; Activity (Danio rerio [8]): Active; fold change (FC) (PC-12 [16]): 2.4
21 | Cc1cccc2sc(NC(=O)CCN3CCN(CC4CCCCC4)CC3)nc12 | 340 | 7650 | 35 | 519 | 60 | 14.8 | IC50 at 24 h [15]: 30700 nM; Activity (SH-SY5Y [6]): Active; Activity (SH-SY5Y [7]): Active; Activity (Danio rerio [8]): Active
22 | Cc1cccc2sc(NC(=O)CCN3CCN(c4ncccn4)CC3)nc12 | 30000 | > 40000 | 505 | > 1000 | > 1000 | > 1.98 | IC50 (P2X purinoceptor 7): 1330 nM
23 | Cc1cccc2sc(NC(=O)CCN3CCN(CCN(C(C)C)C(C)C)CC3)nc12 | 240 | > 40000 | 809 | 121 | 202 |  | Ratio Ki [5]: 6.68; Activity (SH-SY5Y [6]): Active; Activity (SH-SY5Y [7]): Active; Activity (Danio rerio [8]): Active; Activity (Danio rerio [17]): 37.1%; Activity (Danio rerio [18]): 15.1%; fold change (FC) (PC-12 [19]): 3.7
